In patent US8445461B2, “Pharmaceutical composition for meniere's disease” (Setsuko Takeda, priority 2007, dated 2013):

Columns and labels:
[1] = tested on: guinea pigs excreting normal feces; test: Antidiarrheal effect: observation of feces after oral administration of saccharides or sugar alcohols with or without polysaccharides (Example 1); assay type: in vivo
Protocol: The criteria for analyzing the conditions of feces (hardness, shape and spaces of feces in the intestine) are as shown in Table 2:
The hardness and microscopic findings of feces from the group administered with distilled water were assessed as “Normal” scoring 3, the feces having normal shape and the shape could rather easily change by pushing with fingers were assessed as “Slightly soft” scoring 2, those of which the shape had already changed or it could quite easily change by pushed with fingers were assessed as “Soft” scoring 1, and those of which the shape is muddy or watery or of no shape were assessed “Muddy” scoring 0. To be precese, there are no watery feces because of the nature of diets and thus the muddy feces correspond to watery and muddy feces in human.
Since the muddy feces comprise large content of water, they induce the high abdominal pressure and the flatulence and distension. […] In the case of gas generation, it appears that noxious symptom such as the flatulence and distension are synergistically deteriorated. Therefore, we assessed not only based on the hardness of feces, but also the size, smoothness of the surface and amount of feces.
In these experiments, I observed is the diarrhea caused by saccharides or sugar alcohols and antidiarrhreal effect of saccharides. Guinea pigs orally received saccharides or sugar alcohols, for example tetrose such as erythritol, pentose such as xylitol or xylose, hexose such as isosorbitol or the like in combination with or without polysaccharides for observation of the feces up to 6 hours after the administration.
Guinea pigs (body weight 280 to 320 g, normal feces) were divided into four groups: for Group 1-a, xylitol alone (Reference Example 1), or xylitol and xanthan gum or pectin; for Group 1-b, xylose alone (Reference Example 2), xylose and xanthan gum or pectin; for Group 1-c, erythritol alone (Reference Example 3), erythritol and pectin, erythritol and xanthan gum, or erythritol, pectin and natural aluminum silicate gel or calcium carbonate; and for Group 1-d, isosorbitol alone (Reference Example 4), or isosorbitol and xanthan gum or pectin were orally administered, respectively. The compounds are dissolved in distilled water and 8 ml/kg of said solution were administered as a single dose.
The feces were observed during 6 hours after the administration. When the animals fell into the most serious condition, the hardness and shape of the feces from said animals were assessed as the effect by saccharides or sugar alcohols in the animals.

[2] = Volume of agent: volume, weight and particle size of formulations (Example 4); assay type: physicochemical; details: 21 g of erythritol
Protocol: When erythritol is administered to an adult (60 kg body weight), the single dose may be 10 to 80 g, preferably 20 to 60 g. When 21 g of erythritol is administered as powder, the volume may be about 53 ml. Alternatively, administered as saturated aqueous solution, it requires 65 ml of distilled water, and volume and weight thereof is 78 ml and 86 g, respectively. Carrying it to administer 3 times daily is inconvenient for a patient with Meniere's disease.
(§1) The volume of this gel formulation is 20.25 ml and the weight thereof is 36 g. By drying and grinding this gel formulation, the volume increases to 33 ml, however it is convenient for carrying. The particle size of dry milled powder is described in Table 44. If water (10 ml) is added thereto prior to use and mixed, a gel formulation (23 ml) is again obtained.
as §1, with “26.1” for “36”, “31.5 ml.” for “33 ml, however it is convenient for carrying.”, “(3” for “(10”, “(24” for “(23”

[3] = active agent 2.8 g/kg oral, alone or with additives of the label, most serious condition within 6 hours

Time after administration of the peak (most serious) diarrhea ([1]; active agent 2.8 g/kg oral, alone or with additive of the label): Three hours after | Hardness of feces: Hard (number of animals) [1, 3]: 0 | Hardness of feces: Muddy (number of animals) [1, 3]: 5 | Hardness of feces: Normal (number of animals) [1, 3]: 0 | Hardness of feces: Slightly soft (number of animals) [1, 3]: 0 | Hardness of feces: Soft (number of animals) [1, 3]: 0 | Animals in which muddy feces continued up to 6 hours after ([1]; erythritol 2.8 g/kg alone, 5 animals): 3 | Distilled water required for saturated aqueous solution [2]: 65 mL | Volume as powder [2]: about 53 ml | Volume of saturated aqueous solution [2]: 78 mL | Weight of saturated aqueous solution [2]: 86 g
Structure (SMILES): OC[C@@H](O)[C@@H](O)CO [Erythritol, erythritol]
